According to patent US4637999A, “Substituted cephalosporins as anti-inflammatory and antidegenerative agents” (Merck & Co., Inc., priority 1983, dated 1987):
Read-outs that look alike come from different tables or passages of the source.

Molecular target: T1, Human Polymorphonuclear Leukocyte Elastase (Homo sapiens, UniProt P08246)
T1 sequence (P08246 30-267): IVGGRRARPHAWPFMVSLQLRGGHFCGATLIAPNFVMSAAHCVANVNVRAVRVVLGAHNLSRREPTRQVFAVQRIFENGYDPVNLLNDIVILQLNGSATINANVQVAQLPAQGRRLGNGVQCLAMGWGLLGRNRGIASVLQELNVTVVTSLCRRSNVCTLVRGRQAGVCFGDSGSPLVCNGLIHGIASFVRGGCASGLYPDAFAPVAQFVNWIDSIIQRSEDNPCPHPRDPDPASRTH
Test: biochemical

[1] = 50% inhibition of enzyme activity 2 minutes after zero time, crude PMN extract, 0.2 mM Boc-AAPAN, pH 7.5, 410 mμ, read-out: ED50 (the source's name) (converted)

| Compound | IC50 [1] [µM] | IC50 [µM] |
| --- | --- | --- |
| COC(=O)CCCOC(=O)C1=C(COC(C)=O)CSC2C(OC)C(=O)N12 (centres unmarked) [R1=OCH3, B=O(CH2)3 COOCH3] | 1.29 |  |
| COC(=O)c1ccc(COC(=O)C2=C(COC(C)=O)CSC3C(OC)C(=O)N23)cc1 (centres unmarked) [R1=OCH3, B=OCH2 .phi.(p-COOCH3)] | 0.689 |  |
| COC1C(=O)N2C(C(=O)OCC=C(C)C)=C(COC(C)=O)CSC12 (centres unmarked) [R1=OCH3, B=OCH2 CHC(CH3)2] | 2.81 |  |
| CCOC(=O)COC(=O)C1=C(COC(C)=O)CSC2C(OC)C(=O)N12 (stereo not drawn) [R1=OCH3, B=OCH2 COOC2 H5, Ethoxycarbonylmethyl 3-acetyloxymethyl-7α-methoxy-8-oxo-5-thia-1-azabicyclo[4.2.0]oct-2-ene-2-carboxylate] | 1.07 |  |
| COC(=O)C1=C(COC(C)=O)CSC2C(OC)C(=O)N12 (centres unmarked) [R1=OCH3, B=OCH3] | 8.3 |  |
| CO[C@H]1C(=O)N2C(C(=O)OC(C)(C)C)=C(COC(C)=O)CS[C@H]12 [R1=OCH3, B=OtBu, t-Butyl 3-acetyloxymethyl-7α-methoxy-8-oxo-5-thia-1-azabicyclo(4.2.0)oct-2-ene-2-carboxylate] | 10.2 |  |
| CC(=O)OCC1=C(C(=O)OCc2ccccc2)N2C(=O)C(OC=O)C2SC1 (centres unmarked) [R1=OCHO, B=OCH2 .phi.] | 5.11 |  |
| COC(=O)C1=C(COC(C)=O)CSC2C(OC=O)C(=O)N12 (centres unmarked) [R1=OCHO, B=OCH3] | 9.51 |  |
| COC(=O)C1=C(COC(C)=O)CSC2C(OC(=O)c3ccccc3)C(=O)N12 (centres unmarked) [R1=OCO.phi., B=OCH3] | 12.8 |  |
| COC(=O)C1=C(COC(C)=O)CSC2C(OC(=O)Cc3ccccc3)C(=O)N12 (centres unmarked) [R1=OCOCH2 .phi., B=OCH3] |  | 9.87 |
| CC(=O)OCC1=C(C(=O)OC(C)(C)C)N2C(=O)C(OC(=O)Cc3ccccc3)C2SC1 (centres unmarked) [R1=OCOCH2 .phi., B=OtBu] |  | 6.7 |
